The target of the test is T1, Human complement C1s enzyme (Homo sapiens, UniProt P09871).
T1 construct: purified from human serum, Complement Technology, Inc; purchased Complement Technology, Inc; host or cells: human serum
T1 sequence (P09871 438-688 limits assumed): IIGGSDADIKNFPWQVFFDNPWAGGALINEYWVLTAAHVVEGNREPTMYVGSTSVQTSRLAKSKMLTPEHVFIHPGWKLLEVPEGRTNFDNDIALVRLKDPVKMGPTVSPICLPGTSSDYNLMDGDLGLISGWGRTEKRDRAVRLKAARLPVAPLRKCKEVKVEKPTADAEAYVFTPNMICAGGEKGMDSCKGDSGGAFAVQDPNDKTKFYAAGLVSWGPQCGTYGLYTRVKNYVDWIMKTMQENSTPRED
T1 sequence (P09871 16-437 partner limits assumed): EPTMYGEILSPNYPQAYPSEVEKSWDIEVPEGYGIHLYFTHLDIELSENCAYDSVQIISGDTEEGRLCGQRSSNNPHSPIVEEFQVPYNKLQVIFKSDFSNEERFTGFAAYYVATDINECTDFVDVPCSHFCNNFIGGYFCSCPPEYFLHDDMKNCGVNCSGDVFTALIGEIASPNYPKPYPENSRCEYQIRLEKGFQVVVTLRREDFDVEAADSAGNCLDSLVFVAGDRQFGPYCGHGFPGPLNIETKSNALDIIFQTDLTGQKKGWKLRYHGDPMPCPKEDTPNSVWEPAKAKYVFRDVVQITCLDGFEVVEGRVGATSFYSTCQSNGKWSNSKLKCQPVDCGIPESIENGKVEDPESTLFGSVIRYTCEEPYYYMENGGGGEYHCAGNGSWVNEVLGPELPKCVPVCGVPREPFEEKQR
In words: Human C1s Enzyme Assay. The following applies: human C1s 1.16 nM, 5 min preincubation, substrate Z-L-Lys-SBzl 100 μM, A405; read-out: C1s Protease Activity. Type of test: biochemical. In outline: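 IC50 values were fitted by nonlinear regression to rates measured as A405 every 30 s for 30 min. The thioester substrate Z-L-Lys-SBzl and Ellman's reagent were each at 100 μM. Serum-derived C1s at 1.16 nM final had 5 min of room-temperature preincubation with compound (pH 7.5 Tris buffer, 1 M NaCl).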
For the compound `C[C@@]12C[C@@H]1N(C(=O)CNC(=O)c1ccc(Oc3ccccc3)cc1)[C@H](C(=O)NC1(c3cc(C(=N)N)cs3)CC1)C2` [Compound 41, (1S,3S,5S)-N-(1-(4-carbamimidoylthiophen-2-yl)cyclopropyl)-5-methyl-2-((4-phenoxybenzoyl)glycyl)-2-azabicyclo[3.1.0]hexane-3-carboxamide], the IC50 was below 100 nM.

For `C[C@@H](NC(=O)[C@@H]1C[C@]2(C)C[C@@H]2N1C(=O)CNC(=O)c1ccc(C(=O)c2ccccc2)cc1)c1cc(C(=N)N)cs1` [Compound 180, (1S,5S)-2-((4-benzoylbenzoyl)glycyl)-N-((R)-1-(4-carbamimidoylthiophen-2-yl)ethyl)-5-methyl-2-azabicyclo[3.1.0]hexane-3-carboxamide], the IC50 was below 100 nM.

For `CN/C(=N/C#N)c1csc(CNC(=O)[C@@H]2C[C@]3(C)C[C@@H]3N2C(=O)CNC(=O)c2ccc(Oc3ccccc3)cc2)c1` [Compound 236, (1S,3S,5S)-N-((4-((E)-N′-cyano-N-methylcarbamimidoyl)thiophen-2-yl)methyl)-5-methyl-2-((4-phenoxybenzoyl)glycyl)-2-azabicyclo[3.1.0]hexane-3-carboxamide], the IC50 was above 1000 nM.

For `C[C@@]12C[C@@H]1N(C(=O)CNC(=O)c1ccc(Oc3ccccc3)cc1)[C@H](C(=O)NCc1cc(-c3ncc[nH]3)cs1)C2` [Compound 38, (1S,3S,5S)-N-((4-(1H-imidazol-2-yl)thiophen-2-yl)methyl)-5-methyl-2-((4-phenoxybenzoyl)glycyl)-2-azabicyclo[3.1.0]hexane-3-carboxamide], the IC50 was below 100 nM.

`C[C@@]12C[C@@H]1N(C(=O)CNC(=O)c1ccc(Oc3ccccc3)cc1)[C@H](C(=O)NCc1cc(S(C)(=N)=O)cs1)C2` (stereo partly drawn) [Compound 23, (1S,3S,5S)-5-methyl-N-((4-(S-methylsulfonimidoyl)thiophen-2-yl)methyl)-2-((4-phenoxybenzoyl)glycyl)-2-azabicyclo[3.1.0]hexane-3-carboxamide]: the IC50 is above 1000 nM.

On to `C[C@@]12C[C@@H]1N(C(=O)CNC(=O)c1ccc(Oc3ccccc3)cc1)[C@H](C(=O)NCc1ccc(C(=N)N)cn1)C2` [Compound 4], for which the IC50 lay in the range of 100 to 1000 nM.

In the case of `N=C(N)c1csc(CNC(=O)[C@@H]2C[C@H](C(F)F)CN2C(=O)CNC(=O)c2ccc(Oc3ccccc3)cc2)c1` [Compound 51, (2S,4S)-N-((4-carbamimidoylthiophen-2-yl)methyl)-4-(difluoromethyl)-1-((4-phenoxybenzoyl)glycyl)pyrrolidine-2-carboxamide], the IC50 is below 100 nM.

Take `N=C(N)c1csc(CNC(=O)[C@@H]2CC(=C(F)F)CN2C(=O)CNC(=O)c2ccc(Oc3ccccc3)cc2)c1` [Compound 1, (S)-N-((4-carbamimidoylthiophen-2-yl)methyl)-4-(difluoromethylene)-1-((4-phenoxybenzoyl)glycyl)pyrrolidine-2-carboxamide]: the IC50 is below 100 nM.

On to `N=C(N)c1csc(CNC(=O)[C@@H]2CC3(CN2C(=O)CNC(=O)CCCOc2ccccc2)OCCO3)c1` [Compound 28, (S)-N-((4-carbamimidoylthiophen-2-yl)methyl)-7-((4-phenoxybutanoyl)glycyl)-1,4-dioxa-7-azaspiro[4.4]nonane-8-carboxamide], for which the IC50 was below 100 nM.

Take `Cc1sc(CNC(=O)[C@@H]2C[C@]3(C)C[C@@H]3N2C(=O)CNC(=O)CCCOc2ccccc2)cc1C(=N)N` [Compound 216, (1S,3S,5S)-N-((4-carbamimidoyl-5-methylthiophen-2-yl)methyl)-5-methyl-2-((4-phenoxybutanoyl)glycyl)-2-azabicyclo[3.1.0]hexane-3-carboxamide]: the IC50 is above 1000 nM.

Consider `C[C@@H](NC(=O)[C@@H]1C[C@@H](c2ccccc2)CN1C(=O)CNC(=O)CCCOc1ccccc1)c1cc(C(=N)N)cs1` [Compound 158, (2S,4S)-N-((R)-1-(4-carbamimidoylthiophen-2-yl)ethyl)-1-((4-phenoxybutanoyl)glycyl)-4-phenylpyrrolidine-2-carboxamide], for which the IC50 was below 100 nM.

`CC(C)O[C@@H]1C[C@@H](C(=O)N[C@H](C)c2cc(C(=N)N)cs2)N(C(=O)CNC(=O)CCCOc2ccccc2)C1` [Compound 166, (2S,4R)-N-((R)-1-(4-carbamimidoylthiophen-2-yl)ethyl)-4-isopropoxy-1-((4-phenoxybutanoyl)glycyl)pyrrolidine-2-carboxamide]: the IC50 was below 100 nM.

For the compound `C[C@@H](NC(=O)[C@@H]1C[C@@H](OC(F)F)CN1C(=O)CNC(=O)c1ccc(C(=O)c2ccccc2)cc1)c1cc(C(=N)N)cs1` [Compound 203, (2S,4R)-1-((4-benzoylbenzoyl)glycyl)-N-((R)-1-(4-carbamimidoylthiophen-2-yl)ethyl)-4-(difluoromethoxy)pyrrolidine-2-carboxamide], the IC50 is below 100 nM.

For the compound `N=C(N)c1csc(CNC(=O)[C@@H]2C[C@@]3(CCO3)CN2C(=O)CNC(=O)c2ccc(Oc3ccccc3)cc2)c1` [Compound 194, (4R,7S)-N-((4-carbamimidoylthiophen-2-yl)methyl)-6-((4-phenoxybenzoyl)glycyl)-1-oxa-6-azaspiro[3.4]octane-7-carboxamide], the IC50 is below 100 nM.

In the case of `C[C@@]12C[C@@H]1N(C(=O)CNC(=O)c1ccc(Oc3ccccc3)cc1)[C@H](C(=O)NCc1cc(/C(N)=N/S(C)(=O)=O)cs1)C2` [Compound 13, (1S,3S,5S)-5-methyl-N-((4-((Z)-N′-(methylsulfonyl)carbamimidoyl)thiophen-2-yl)-methyl)-2-((4-phenoxybenzoyl)glycyl)-2-azabicyclo[3.1.0]hexane-3-carboxamide], the IC50 was above 1000 nM.

Take `C[C@@]12C[C@@H]1N(CCNC(=O)CCCOc1ccccc1)[C@H](C(=O)NCc1cc(C(=N)N)cs1)C2` [Compound 134, (1S,3S,5S)-N-((4-carbamimidoylthiophen-2-yl)methyl)-5-methyl-2-(2-(4-phenoxybutanamido)ethyl)-2-azabicyclo[3.1.0]hexane-3-carboxamide]: the IC50 is above 1000 nM.

As for `CC(CCOc1ccccc1)C(=O)NCC(=O)N1CC2(C[C@H]1C(=O)NCc1cc(C(=N)N)cs1)OCCO2` (stereo partly drawn) [Compound 88, (8S)-N-((4-carbamimidoylthiophen-2-yl)methyl)-7-((2-methyl-4-phenoxybutanoyl)glycyl)-1,4-dioxa-7-azaspiro[4.4]nonane-8-carboxamide], the IC50 was below 100 nM.

On to `C[C@@H](Oc1ccc(C(=O)NCC(=O)N2[C@H]3C[C@@]3(C)C[C@H]2C(=O)NCc2cc(C(=N)N)cs2)cc1)c1ccccc1` [Compound 223, (1S,3S,5S)-N-((4-carbamimidoylthiophen-2-yl)methyl)-5-methyl-2-((4-((R)-1-phenylethoxy)benzoyl)glycyl)-2-azabicyclo[3.1.0]hexane-3-carboxamide], for which the IC50 is below 100 nM.

Consider `C[C@@]12C[C@@H]1N(C(=O)CNC(=O)c1ccc(Oc3ccccc3)cc1)[C@H](C(=O)NS(=O)(=O)c1cc(C(=N)N)cs1)C2` [Compound 86, (1S,3S,5S)-N-((4-carbamimidoylthiophen-2-yl)sulfonyl)-5-methyl-2-((4-phenoxy-benzoyl)glycyl)-2-azabicyclo[3.1.0]hexane-3-carboxamide], for which the IC50 was above 1000 nM.

As to `C[C@@H](NC(=O)[C@@H]1C[C@@H](S(C)(=O)=O)CN1C(=O)CNC(=O)CCCOc1ccccc1)c1cc(C(=N)N)cs1` [Compound 125, (2S,4R)-N-((R)-1-(4-carbamimidoylthiophen-2-yl)ethyl)-4-(methylsulfonyl)-1-((4-phenoxybutanoyl)glycyl)pyrrolidine-2-carboxamide], the IC50 was below 100 nM.
